Laboratory results reported in patent publication US9636418B2 (priority 2013, dated 2017).

Tests used:
Assay in all cases: cell-based
hNav1.4 = hNav1.4 (Homo sapiens, UniProt P35499); details: for IC50: PatchXpress, tonic block, read-out: PX hNav1.4 Tonic IC50; for Nav1.4/Nav1.7: ratio of PX tonic IC50 values
hNav1.7 = hNav1.7 (Homo sapiens, UniProt Q15858); type: cell-based; details: PatchXpress, tonic block; read-out: PX hNav1.7 Tonic IC50
hNav1.5 = hNav1.5 (Homo sapiens, UniProt Q14524); details: for IC50: PatchXpress, tonic block, read-out: PX hNav1.5 Tonic IC50; for Nav1.5/Nav1.7: ratio of PX tonic IC50 values
hNav1.5, sequence (Q14524 whole entry): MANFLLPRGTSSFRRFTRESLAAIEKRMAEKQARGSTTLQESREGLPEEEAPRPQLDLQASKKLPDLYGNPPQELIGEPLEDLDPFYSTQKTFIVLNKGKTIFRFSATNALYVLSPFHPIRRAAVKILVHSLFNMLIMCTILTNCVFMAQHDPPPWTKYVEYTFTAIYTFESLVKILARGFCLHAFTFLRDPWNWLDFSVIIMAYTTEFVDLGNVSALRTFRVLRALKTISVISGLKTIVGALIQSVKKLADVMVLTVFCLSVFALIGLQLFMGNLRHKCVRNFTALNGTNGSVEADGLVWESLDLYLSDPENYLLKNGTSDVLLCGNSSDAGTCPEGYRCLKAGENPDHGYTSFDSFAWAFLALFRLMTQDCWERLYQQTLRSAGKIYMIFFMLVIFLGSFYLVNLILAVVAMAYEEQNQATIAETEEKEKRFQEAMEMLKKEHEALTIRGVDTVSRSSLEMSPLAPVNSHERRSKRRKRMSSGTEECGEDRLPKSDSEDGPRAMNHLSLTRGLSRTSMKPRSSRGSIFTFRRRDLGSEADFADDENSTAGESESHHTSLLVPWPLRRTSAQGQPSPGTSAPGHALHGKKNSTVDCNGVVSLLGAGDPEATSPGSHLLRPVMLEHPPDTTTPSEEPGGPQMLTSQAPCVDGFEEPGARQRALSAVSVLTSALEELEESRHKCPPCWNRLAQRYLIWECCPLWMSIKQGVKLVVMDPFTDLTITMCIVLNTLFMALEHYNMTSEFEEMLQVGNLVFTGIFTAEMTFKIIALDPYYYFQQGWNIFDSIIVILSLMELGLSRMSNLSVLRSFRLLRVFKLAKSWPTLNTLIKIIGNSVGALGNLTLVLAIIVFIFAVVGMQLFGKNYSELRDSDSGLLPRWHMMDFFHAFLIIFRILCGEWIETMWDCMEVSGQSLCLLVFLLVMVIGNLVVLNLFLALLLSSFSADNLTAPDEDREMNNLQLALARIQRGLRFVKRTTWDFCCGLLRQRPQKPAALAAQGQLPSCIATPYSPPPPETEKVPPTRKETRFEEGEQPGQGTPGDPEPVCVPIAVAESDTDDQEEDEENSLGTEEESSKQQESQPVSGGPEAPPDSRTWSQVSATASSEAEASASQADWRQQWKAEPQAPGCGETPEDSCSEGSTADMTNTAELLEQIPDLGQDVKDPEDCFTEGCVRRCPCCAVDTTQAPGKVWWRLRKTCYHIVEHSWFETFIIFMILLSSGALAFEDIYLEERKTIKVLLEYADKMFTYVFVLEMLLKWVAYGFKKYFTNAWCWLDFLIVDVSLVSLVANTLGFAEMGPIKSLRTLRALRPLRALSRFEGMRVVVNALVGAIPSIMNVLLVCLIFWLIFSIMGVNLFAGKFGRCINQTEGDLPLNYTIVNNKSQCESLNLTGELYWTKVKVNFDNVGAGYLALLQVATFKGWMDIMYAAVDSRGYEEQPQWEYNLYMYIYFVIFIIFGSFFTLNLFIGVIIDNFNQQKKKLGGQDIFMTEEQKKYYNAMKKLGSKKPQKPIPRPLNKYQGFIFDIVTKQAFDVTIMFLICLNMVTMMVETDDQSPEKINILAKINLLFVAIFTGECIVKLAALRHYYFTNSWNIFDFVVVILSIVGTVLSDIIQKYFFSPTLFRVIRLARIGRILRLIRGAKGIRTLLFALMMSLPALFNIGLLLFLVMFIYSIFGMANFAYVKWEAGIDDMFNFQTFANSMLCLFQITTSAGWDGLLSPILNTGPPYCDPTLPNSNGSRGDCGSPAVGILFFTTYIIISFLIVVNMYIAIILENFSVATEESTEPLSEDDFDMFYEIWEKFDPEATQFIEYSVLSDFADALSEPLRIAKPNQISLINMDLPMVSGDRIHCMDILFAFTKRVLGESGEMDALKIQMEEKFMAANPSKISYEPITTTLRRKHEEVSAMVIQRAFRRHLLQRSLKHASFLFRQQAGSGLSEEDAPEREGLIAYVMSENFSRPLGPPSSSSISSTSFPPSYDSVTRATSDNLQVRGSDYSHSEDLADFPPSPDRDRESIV

hNav1.4, sequence (P35499 whole entry): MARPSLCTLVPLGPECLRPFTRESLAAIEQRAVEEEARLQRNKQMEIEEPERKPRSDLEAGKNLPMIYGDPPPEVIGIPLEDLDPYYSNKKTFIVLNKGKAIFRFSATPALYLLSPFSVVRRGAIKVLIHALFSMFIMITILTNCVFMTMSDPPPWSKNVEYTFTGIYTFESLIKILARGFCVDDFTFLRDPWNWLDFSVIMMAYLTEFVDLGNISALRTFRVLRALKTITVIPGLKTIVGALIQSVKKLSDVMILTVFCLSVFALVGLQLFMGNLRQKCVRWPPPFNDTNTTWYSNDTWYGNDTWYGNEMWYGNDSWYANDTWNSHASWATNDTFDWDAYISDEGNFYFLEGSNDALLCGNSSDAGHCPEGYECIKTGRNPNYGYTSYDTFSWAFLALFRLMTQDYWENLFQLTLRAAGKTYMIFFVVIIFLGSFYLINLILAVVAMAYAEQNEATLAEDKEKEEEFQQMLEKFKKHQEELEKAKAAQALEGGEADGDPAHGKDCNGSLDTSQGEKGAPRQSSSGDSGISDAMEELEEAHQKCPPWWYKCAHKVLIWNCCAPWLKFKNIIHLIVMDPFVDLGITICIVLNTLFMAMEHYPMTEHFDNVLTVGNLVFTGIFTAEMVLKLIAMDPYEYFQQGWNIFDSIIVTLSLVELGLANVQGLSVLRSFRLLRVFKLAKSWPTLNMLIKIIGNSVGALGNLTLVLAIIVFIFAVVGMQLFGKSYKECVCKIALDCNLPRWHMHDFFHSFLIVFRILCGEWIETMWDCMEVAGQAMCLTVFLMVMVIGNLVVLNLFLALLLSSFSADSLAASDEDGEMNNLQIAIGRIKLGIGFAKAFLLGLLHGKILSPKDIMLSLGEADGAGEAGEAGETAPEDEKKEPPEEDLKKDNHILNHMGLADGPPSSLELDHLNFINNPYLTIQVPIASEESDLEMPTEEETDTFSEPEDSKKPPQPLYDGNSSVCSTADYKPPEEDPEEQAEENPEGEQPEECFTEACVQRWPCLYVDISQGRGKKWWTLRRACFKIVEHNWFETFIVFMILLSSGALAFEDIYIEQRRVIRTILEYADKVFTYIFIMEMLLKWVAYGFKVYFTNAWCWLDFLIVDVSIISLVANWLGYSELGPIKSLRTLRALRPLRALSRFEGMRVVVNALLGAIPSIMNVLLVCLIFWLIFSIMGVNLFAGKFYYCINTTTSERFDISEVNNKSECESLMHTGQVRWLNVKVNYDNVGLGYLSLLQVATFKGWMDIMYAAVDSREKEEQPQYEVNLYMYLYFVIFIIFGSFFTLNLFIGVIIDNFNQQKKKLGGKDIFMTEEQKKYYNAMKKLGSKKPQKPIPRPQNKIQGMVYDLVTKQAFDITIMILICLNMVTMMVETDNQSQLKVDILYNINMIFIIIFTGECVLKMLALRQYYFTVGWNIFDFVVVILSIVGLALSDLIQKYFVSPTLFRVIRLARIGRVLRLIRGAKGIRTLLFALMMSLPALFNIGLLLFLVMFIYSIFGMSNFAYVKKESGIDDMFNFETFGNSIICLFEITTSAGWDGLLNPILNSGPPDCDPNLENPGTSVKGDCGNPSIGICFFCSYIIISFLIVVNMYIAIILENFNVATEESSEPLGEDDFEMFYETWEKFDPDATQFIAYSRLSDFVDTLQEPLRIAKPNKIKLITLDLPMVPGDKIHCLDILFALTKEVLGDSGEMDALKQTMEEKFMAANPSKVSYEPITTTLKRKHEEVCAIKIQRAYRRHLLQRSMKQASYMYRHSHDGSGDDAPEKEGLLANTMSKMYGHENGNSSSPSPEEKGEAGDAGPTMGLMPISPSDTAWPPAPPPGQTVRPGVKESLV

Row | SMILES | IC50 (hNav1.4) [nM] | IC50 (hNav1.7) [nM] | IC50 (hNav1.5) [nM] | Nav1.4/Nav1.7 (hNav1.4) | Nav1.5/Nav1.7 (hNav1.5)
1 | C#CC[C@H](N)C(=O)N[C@@H](Cc1ccc(O)cc1)C(=O)N[C@H]1CSSC[C@@H]2NC(=O)[C@@H]3CSSC[C@@H](C(=O)N[C@@H](CCCNC(=N)N)C(=O)N[C@@H](CCCCN)C(=O)N[C@H](C(=O)N[C@@H](Cc4c[nH]c5ccccc45)C(N)=O)[C@@H](C)CC)NC(=O)[C@H](Cc4c[nH]c5ccccc45)NC(=O)[C@H](CC(C)C)NC(=O)[C@H](CCCCN)NC(=O)[C@H](CSSC[C@H](NC(=O)[C@H]([C@@H](C)O)NC(=O)[C@H](Cc4c[nH]c5ccccc45)NC(=O)[C@H](CC(C)C)NC(=O)[C@H](Cc4c[nH]c5ccccc45)NC(=O)[C@H](CCCCN)NC(=O)[C@H](CCC(N)=O)NC1=O)C(=O)N[C@@H](CC(=O)O)C(=O)N[C@@H](CO)C(=O)N[C@@H](CCCCN)C(=O)N[C@@H](CCCNC(=N)N)C(=O)N[C@@H](C)C(=O)N3)NC(=O)[C@H](CCC(=O)O)NC(=O)[C@H](CC(C)C)NC(=O)CNC(=O)[C@H](CCC(=O)O)NC2=O [compound 299] | 1180 | 0.571 | 1330 |  | 
2 | C#CC[C@H](N)C(=O)N[C@@H](Cc1ccc(O)cc1)C(=O)N[C@H]1CSSC[C@@H]2NC(=O)[C@@H]3CSSC[C@@H](C(=O)N[C@@H](CCCNC(=N)N)C(=O)N[C@@H](CCCCN)C(=O)N[C@H](C(=O)N[C@@H](Cc4c[nH]c5ccccc45)C(N)=O)[C@@H](C)CC)NC(=O)[C@H](Cc4c[nH]c5ccccc45)NC(=O)[C@H](CC(C)C)NC(=O)[C@H](CCCCN)NC(=O)[C@H](CSSC[C@H](NC(=O)[C@H]([C@@H](C)O)NC(=O)[C@H](Cc4c[nH]c5ccccc45)NC(=O)[C@H](CCC)NC(=O)[C@H](Cc4c[nH]c5ccccc45)NC(=O)[C@H](CCCCN)NC(=O)[C@H](CCC(N)=O)NC1=O)C(=O)N[C@@H](CC(=O)O)C(=O)N[C@@H](CO)C(=O)N[C@@H](CCCCN)C(=O)N[C@@H](CCCNC(=N)N)C(=O)N[C@@H](C)C(=O)N3)NC(=O)[C@H](CCC(=O)O)NC(=O)[C@H](CC(C)C)NC(=O)CNC(=O)[C@H](CCC(=O)O)NC2=O [compound 300] | 967 | 0.818 | 5300 |  | 
3 | CCCC[C@@H]1NC(=O)[C@H](Cc2c[nH]c3ccccc23)NC(=O)[C@H](CCCCN)NC(=O)[C@H](CCC(N)=O)NC(=O)[C@@H](NC(=O)[C@@H](N)CCCCN=[N+]=[N-])CSSC[C@@H]2NC(=O)[C@@H]3CSSC[C@@H](C(=O)N[C@@H](CCCNC(=N)N)C(=O)N[C@@H](CCCCN)C(=O)N[C@H](C(=O)N[C@@H](Cc4c[nH]c5ccccc45)C(N)=O)[C@@H](C)CC)NC(=O)[C@H](Cc4c[nH]c5ccccc45)NC(=O)[C@H](CC(C)C)NC(=O)[C@H](CCCCN)NC(=O)[C@H](CSSC[C@H](NC(=O)[C@H]([C@@H](C)O)NC(=O)[C@H](Cc4c[nH]c5ccccc45)NC1=O)C(=O)N[C@@H](CC(=O)O)C(=O)N[C@@H](CO)C(=O)N[C@@H](CCCCN)C(=O)N[C@@H](CCCNC(=N)N)C(=O)N[C@@H](C)C(=O)N3)NC(=O)[C@H](CCC(=O)O)NC(=O)[C@H](CC(C)C)NC(=O)CNC(=O)[C@H](CCC(=O)O)NC2=O [compound 304] | 1740 | 3.86 | 2560 |  | 
4 | CCCC[C@@H]1NC(=O)[C@H](Cc2c[nH]c3ccccc23)NC(=O)[C@H](CCCCN)NC(=O)[C@H](CCC(N)=O)NC(=O)[C@@H](NC(=O)[C@@H](N)Cc2ccc(O)cc2)CSSC[C@@H]2NC(=O)[C@@H]3CSSC[C@@H](C(=O)N[C@@H](CCCNC(=N)N)C(=O)N[C@@H](CCCCN)C(=O)N[C@H](C(=O)N[C@@H](Cc4c[nH]c5ccccc45)C(N)=O)[C@@H](C)CC)NC(=O)[C@H](Cc4c[nH]c5ccccc45)NC(=O)[C@H](CC(C)C)NC(=O)[C@H](CCCCN)NC(=O)[C@H](CSSC[C@H](NC(=O)[C@H]([C@@H](C)O)NC(=O)[C@H](Cc4c[nH]c5ccccc45)NC1=O)C(=O)N[C@@H](CC(=O)O)C(=O)N[C@@H](CCCCN=[N+]=[N-])C(=O)N[C@@H](CCCCN)C(=O)N[C@@H](CCCNC(=N)N)C(=O)N[C@@H](C)C(=O)N3)NC(=O)[C@H](CCC(=O)O)NC(=O)[C@H](CC(C)C)NC(=O)CNC(=O)[C@H](CCC(=O)O)NC2=O [compound 305] |  | 435 |  | 0 | 0
5 | CCCC[C@@H]1NC(=O)[C@H](Cc2c[nH]c3ccccc23)NC(=O)[C@H](CCCCN)NC(=O)[C@H](CCC(N)=O)NC(=O)[C@@H](NC(=O)[C@@H](N)Cc2ccc(O)cc2)CSSC[C@@H]2NC(=O)[C@@H]3CSSC[C@@H](C(=O)N[C@@H](CCCNC(=N)N)C(=O)N[C@@H](CCCCN)C(=O)N[C@H](C(=O)N[C@@H](Cc4c[nH]c5ccccc45)C(N)=O)[C@@H](C)CC)NC(=O)[C@H](Cc4c[nH]c5ccccc45)NC(=O)[C@H](CC(C)C)NC(=O)[C@H](CCCCN)NC(=O)[C@H](CSSC[C@H](NC(=O)[C@H]([C@@H](C)O)NC(=O)[C@H](Cc4c[nH]c5ccccc45)NC1=O)C(=O)N[C@@H](CC(=O)O)C(=O)N[C@@H](CO)C(=O)N[C@@H](CCCCN)C(=O)N[C@@H](CCCNC(=N)N)C(=O)N[C@@H](CCCCN=[N+]=[N-])C(=O)N3)NC(=O)[C@H](CCC(=O)O)NC(=O)[C@H](CC(C)C)NC(=O)CNC(=O)[C@H](CCC(=O)O)NC2=O [compound 306] | 635 | 1.15 | 1970 | 550 | 
6 | CCCC[C@@H]1NC(=O)[C@H](Cc2c[nH]c3ccccc23)NC(=O)[C@H](CCCCN)NC(=O)[C@H](CCC(N)=O)NC(=O)[C@@H](NC(=O)[C@@H](N)Cc2ccc(O)cc2)CSSC[C@@H]2NC(=O)[C@@H]3CSSC[C@@H](C(=O)N[C@@H](CCCNC(=N)N)C(=O)N[C@@H](CCCCN)C(=O)N[C@H](C(=O)N[C@@H](Cc4c[nH]c5ccccc45)C(N)=O)[C@@H](C)CC)NC(=O)[C@H](Cc4c[nH]c5ccccc45)NC(=O)[C@H](CC(C)C)NC(=O)[C@H](CCCCN)NC(=O)[C@H](CSSC[C@H](NC(=O)[C@H]([C@@H](C)O)NC(=O)[C@H](Cc4c[nH]c5ccccc45)NC1=O)C(=O)N[C@@H](CC(=O)O)C(=O)N[C@@H](CO)C(=O)N[C@@H](CCCCN)C(=O)N[C@@H](CCCNC(=N)N)C(=O)N[C@@H](C)C(=O)N3)NC(=O)[C@H](CCC(=O)O)NC(=O)[C@H](CC(C)C)NC(=O)CNC(=O)[C@H](CCCCN=[N+]=[N-])NC2=O [compound 307] | 360 | 9.08 | 750 | 40 | 83
7 | CCCC[C@@H]1NC(=O)[C@H](Cc2c[nH]c3ccccc23)NC(=O)[C@H](CCCCN)NC(=O)[C@H](CCC(N)=O)NC(=O)[C@@H](NC(=O)[C@H](Cc2ccc(O)cc2)NC(=O)[C@@H](N)CCN=[N+]=[N-])CSSC[C@@H]2NC(=O)[C@@H]3CSSC[C@@H](C(=O)N[C@@H](CCCNC(=N)N)C(=O)N[C@@H](CCCCN)C(=O)N[C@H](C(=O)N[C@@H](Cc4c[nH]c5ccccc45)C(N)=O)[C@@H](C)CC)NC(=O)[C@H](Cc4c[nH]c5ccccc45)NC(=O)[C@H](CC(C)C)NC(=O)[C@H](CCCCN)NC(=O)[C@H](CSSC[C@H](NC(=O)[C@H]([C@@H](C)O)NC(=O)[C@H](Cc4c[nH]c5ccccc45)NC1=O)C(=O)N[C@@H](CC(=O)O)C(=O)N[C@@H](CO)C(=O)N[C@@H](CCCCN)C(=O)N[C@@H](CCCNC(=N)N)C(=O)N[C@@H](C)C(=O)N3)NC(=O)[C@H](CCC(=O)O)NC(=O)[C@H](CC(C)C)NC(=O)CNC(=O)[C@H](CCC(=O)O)NC2=O [compound 308] | 1200 | 1.12 | 3770 |  | 
8 | CCCC[C@@H]1NC(=O)[C@H](Cc2c[nH]c3ccccc23)NC(=O)[C@H](CCCCN)NC(=O)[C@H](CCC(N)=O)NC(=O)[C@@H](NC(=O)[C@@H](N)CCN=[N+]=[N-])CSSC[C@@H]2NC(=O)[C@@H]3CSSC[C@@H](C(=O)N[C@@H](CCCNC(=N)N)C(=O)N[C@@H](CCCCN)C(=O)N[C@H](C(=O)N[C@@H](Cc4c[nH]c5ccccc45)C(N)=O)[C@@H](C)CC)NC(=O)[C@H](Cc4c[nH]c5ccccc45)NC(=O)[C@H](CC(C)C)NC(=O)[C@H](CCCCN)NC(=O)[C@H](CSSC[C@H](NC(=O)[C@H]([C@@H](C)O)NC(=O)[C@H](Cc4c[nH]c5ccccc45)NC1=O)C(=O)N[C@@H](CC(=O)O)C(=O)N[C@@H](CO)C(=O)N[C@@H](CCCCN)C(=O)N[C@@H](CCCNC(=N)N)C(=O)N[C@@H](C)C(=O)N3)NC(=O)[C@H](CCC(=O)O)NC(=O)[C@H](CC(C)C)NC(=O)CNC(=O)[C@H](CCC(=O)O)NC2=O [compound 309] | 767 | 3.21 | 2030 |  | 
9 | C#CC[C@H](N)C(=O)N[C@@H](Cc1ccc(O)cc1)C(=O)N[C@H]1CSSC[C@@H]2NC(=O)[C@@H]3CSSC[C@@H](C(=O)N[C@@H](CCCNC(=N)N)C(=O)N[C@@H](CCCCN)C(=O)N[C@@H](Cc4ccc(O)cc4)C(=O)N[C@H](C(N)=O)[C@@H](C)CC)NC(=O)[C@H](Cc4c[nH]c5ccccc45)NC(=O)[C@H](CC(C)C)NC(=O)[C@H](CCCCN)NC(=O)[C@H](CSSC[C@H](NC(=O)[C@H]([C@@H](C)O)NC(=O)[C@H](Cc4c[nH]c5ccccc45)NC(=O)[C@H](CCCC)NC(=O)[C@H](Cc4c[nH]c5ccccc45)NC(=O)[C@H](CCCCN)NC(=O)[C@H](CCC(N)=O)NC1=O)C(=O)N[C@@H](CC(=O)O)C(=O)N[C@@H](CO)C(=O)N[C@@H](CCCCN)C(=O)N[C@@H](CCCNC(=N)N)C(=O)N[C@@H](C)C(=O)N3)NC(=O)[C@H](CCC(=O)O)NC(=O)[C@H](CC(C)C)NC(=O)CNC(=O)[C@H](CCC(=O)O)NC2=O [compound 313] | 966 | 0.427 | 4370 |  | 
